Results: ChEMBL document CHEMBL1147819, “Synthesis of 2-alkoxy-8-hydroxyadenylpeptides: towards synthetic epitope-based vaccines” (Bioorg Med Chem Lett, 2006)
The source made the active and inactive calls. No cut-off for these calls is given here. Residues, ends and D or L forms follow the SMILES beside them. *: point of attachment. X2 = C[C@H](N*)C(=O)N(C(=O)c1cn(CCOCCOCCOc2nc(N)c3nc(O)n(Cc4ccccc4)c3n2)nn1)[C@@H](CCCCN)C(N)=O; X1 = Nc1nc(OCCOCCOCCn2cc(C(=O)*)nn2)nc2c1nc(O)n2Cc1ccccc1

Tests used:
Format in all cases: functional, cell-based
Conditions in all cases: Homo sapiens
Dendritic cell [1] = test: Inhibition of antigen presentation in dendritic cells
Dendritic cell [2] = test: Induction of antigen presentation in dendritic cells
Dendritic cell [3] = test: Induction of IL-12p40 in dendritic cells

SMILES | Activity (Dendritic cell [1]) | Activity (Dendritic cell [2]) | Activity (Dendritic cell [3])
CC[C@H](C)[C@H](NC(=O)[C@H](CO)NC(=O)[C@H](CCC(=O)O)NC(=O)[C@H](CC(C)C)NC(=O)[C@H](CCC(N)=O)NC(=O)[C@H](CCC(=O)O)NC(=O)[C@H](CC(C)C)NC(=O)CNC(=O)[C@H](CO)NC(=O)[C@@H](NC(=O)[C@H](CCC(=O)O)NC(=O)[C@H](CC(=O)O)NC(=O)c1cn(CCOCCOCCOc2nc(N)c3nc(O)n(Cc4ccccc4)c3n2)nn1)C(C)C)C(=O)N[C@H](C(=O)N[C@@H](CC(N)=O)C(=O)N[C@@H](Cc1ccccc1)C(=O)N[C@@H](CCC(=O)O)C(=O)N[C@@H](CCCCN)C(=O)N[C@@H](CC(C)C)C(=O)N[C@@H](C)C(=O)N[C@@H](C)C(=O)N[C@@H](C)C(=O)N[C@@H](C)C(=O)N[C@@H](C)C(=O)N[C@@H](CCCCN)C(N)=O)[C@@H](C)CC (X1-DEVSGLEQLESIINFEKLAAAAAK-NH2) | Active | Active | 
COCCOc1nc(N)c2[nH]c(=O)n(Cc3ccccc3)c2n1 |  |  | Active
CC[C@H](C)[C@H](NC(=O)[C@H](CO)NC(=O)[C@H](CCC(=O)O)NC(=O)[C@H](CC(C)C)NC(=O)[C@H](CCC(N)=O)NC(=O)[C@H](CCC(=O)O)NC(=O)[C@H](CC(C)C)NC(=O)CNC(=O)[C@H](CO)NC(=O)[C@@H](NC(=O)[C@H](CCC(=O)O)NC(=O)[C@H](CC(=O)O)NC(=O)c1cn(CCOCCOCCOc2nc(N)c3nc(O)n(Cc4ccccc4)c3n2)nn1)C(C)C)C(=O)N[C@H](C(=O)N[C@@H](CC(N)=O)C(=O)N[C@@H](Cc1ccccc1)C(=O)N[C@@H](CCC(=O)O)C(=O)N[C@@H](CCCCN)C(=O)N[C@@H](CC(C)C)C(=O)O)[C@@H](C)CC (X1-DEVSGLEQLESIINFEKL-OH) | Active | Active | 
CC[C@H](C)[C@H](NC(=O)[C@H](CO)NC(=O)[C@H](CCC(=O)O)NC(=O)[C@H](CC(C)C)NC(=O)[C@H](CCC(N)=O)NC(=O)[C@H](CCC(=O)O)NC(=O)[C@H](CC(C)C)NC(=O)CNC(=O)[C@H](CO)NC(=O)[C@@H](NC(=O)[C@H](CCC(=O)O)NC(=O)[C@@H](N)CC(=O)O)C(C)C)C(=O)N[C@H](C(=O)N[C@@H](CC(N)=O)C(=O)N[C@@H](Cc1ccccc1)C(=O)N[C@@H](CCC(=O)O)C(=O)N[C@@H](CCCCN)C(=O)N[C@@H](CC(C)C)C(=O)N[C@@H](C)C(=O)N[C@@H](C)C(=O)N[C@@H](C)C(=O)N[C@@H](C)C(=O)N[C@@H](C)C(=O)N(C(=O)c1cn(CCOCCOCCOc2nc(N)c3nc(O)n(Cc4ccccc4)c3n2)nn1)[C@@H](CCCCN)C(N)=O)[C@@H](C)CC (H-DEVSGLEQLESIINFEKLAAAA-X2) | Active | Active | 
[N-]=[N+]=NCCOCCOCCOc1nc(N)c2[nH]c(=O)n(Cc3ccccc3)c2n1 |  |  | Active
